Results as given in patent US8309558B2, “Compounds for the treatment of hepatitis C” (Bristol-Myers Squibb Company, priority 2008, dated 2012).
Where two headings read alike, the source gives them in different places.

How the values were obtained:
[1] = target: T1, HCV NS5B RdRp genotype 1b (Hepatitis C virus genotype 1b, UniProt Q9WMX2); assay: Standard HCV NS5B RdRp enzyme assay; format: biochemical
T1 construct: The protein was expressed with an 18 amino acid C-terminal truncation to enhance the solubility; made in house; host or cells: E. coli BL21(DE3), pET21a vector
T1 sequence (Q9WMX2 2420-2992): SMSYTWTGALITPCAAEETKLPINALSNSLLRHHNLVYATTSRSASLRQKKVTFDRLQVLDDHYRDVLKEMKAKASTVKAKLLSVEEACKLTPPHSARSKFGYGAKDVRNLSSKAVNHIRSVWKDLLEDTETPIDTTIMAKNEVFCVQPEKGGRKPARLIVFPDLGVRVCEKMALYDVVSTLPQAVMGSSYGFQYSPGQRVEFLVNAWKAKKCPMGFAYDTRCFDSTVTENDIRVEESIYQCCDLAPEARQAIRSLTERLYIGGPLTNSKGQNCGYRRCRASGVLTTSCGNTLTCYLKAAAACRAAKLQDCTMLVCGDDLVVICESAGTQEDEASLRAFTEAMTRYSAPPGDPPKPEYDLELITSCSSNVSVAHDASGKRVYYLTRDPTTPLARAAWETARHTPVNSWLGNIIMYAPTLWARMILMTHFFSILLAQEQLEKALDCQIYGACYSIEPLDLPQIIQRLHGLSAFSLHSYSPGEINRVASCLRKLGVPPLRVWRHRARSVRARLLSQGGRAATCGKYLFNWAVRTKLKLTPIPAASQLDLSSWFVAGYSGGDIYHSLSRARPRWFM
Method in brief: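 C-terminally truncated (18 aa) genotype 1b NS5B from E. coli, 28 nM, with 6 nM polyA template, 180 nM biotinylated oligo-dT12 primer and 3H-UTP (0.29 μM total UTP). Hepes pH 7.5 buffer with 2% DMSO; 60 min at 30° C. EDTA stop, SPA read-out; IC50 from seven concentrations by four-parameter fit.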

[2] = test system: HCV replicon cells; assay: HCV replicon FRET / luciferase assay (96-well plates); format: cell-based; settings: Hepatitis C virus
Method in brief: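 Trypsinized replicon cells were seeded with compound titrations and incubated at 37 °C for various times. Alamar blue was added to gauge toxicity. Plates were then rinsed and either lysed with FRET peptide reagent for kinetic fluorescence reading or switched to phenol red-free DMEM for luciferase measurement.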

[3] = Table 1b, HCV NS5B RdRp genotype 1b, read-out: IC50
[4] = Table 1b, HCV replicon, read-out: EC50
[5] = Table 1a, HCV NS5B RdRp genotype 1b, read-out: IC50
[6] = Table 1a, HCV replicon, read-out: EC50
[7] = Table 1d (class symbols), HCV NS5B RdRp genotype 1b, read-out: IC50
[8] = 24 h, Table 1d (class symbols), HCV replicon, read-out: EC50
[9] = untitled table after Table 1b, HCV NS5B RdRp genotype 1b, read-out: IC50
[10] = untitled table after Table 1b, HCV replicon, values without asterisk, read-out: EC50

SMILES: CNC(=O)c1c(-c2ccc(F)cc2)oc2ccc(-c3cc(C(=O)NC4(c5nnc(-c6ccc(OC)cc6)[nH]5)CC4)ccc3C)cc12
- IC50 [1, 3]: < 250 nM
- EC50 [2, 4]: < 250 nM

SMILES: CNC(=O)c1c(-c2ccc(F)cc2)oc2ccc(-c3cncc(C(=O)NC(C)(C)C)c3)cc12
- IC50 [1, 3]: < 250 nM
- EC50 [2, 4]: < 250 nM

SMILES: CCCC[C@H](CO)NC(=O)c1cccc(-c2ccc3oc(-c4ccc(F)cc4)c(C(=O)NC)c3c2)c1 [drawing 232]
- IC50 [1, 5]: 250 to 1000 nM
- EC50 [2, 6]: 1000 to 10000 nM

SMILES: CNC(=O)c1c(-c2ccc(F)cc2)oc2ccc(-c3cc(C(=O)NC4(c5ocnc5C)CC4)c(OC)cc3C)cc12
- IC50 [1, 7]: 1 to 250 nM
- EC50 [2, 8]: 1 to 250 nM

SMILES: CNC(=O)c1c(-c2ccc(F)cc2)oc2ccc(-c3cccc(C(=O)NC4CCC(C)CC4)c3)cc12 (stereo not drawn)
- IC50 [1, 5]: < 250 nM
- EC50 [2, 6]: < 250 nM

SMILES: CCCCNC(=O)c1cccc(-c2ccc3oc(-c4ccc(F)cc4)c(C(=O)NC)c3c2)c1
- IC50 [1, 5]: < 250 nM
- EC50 [2, 6]: < 250 nM

SMILES: CNC(=O)c1c(-c2ccc(F)cc2)oc2ccc(-c3cc(C(=O)NCC(C)C)ccc3OCCc3ccc(Cl)cc3)cc12
- IC50 [1, 3]: > 10000 nM
- EC50 [2, 4]: > 10000 nM

SMILES: CNC(=O)c1c(-c2ccc(F)cc2)oc2ccc(-c3cc(C(=O)NCC(C)C)ccc3OCC3CCCN3)cc12 (stereo not drawn)
- IC50 [1, 3]: < 250 nM
- EC50 [2, 4]: 250 to 1000 nM

SMILES: CNC(=O)c1c(-c2ccc(F)cc2)oc2ccc(-c3cccc(C(=O)N4CCCC4)c3)cc12
- IC50 [1, 5]: 250 to 1000 nM
- EC50 [2, 6]: 250 to 1000 nM

SMILES: CNC(=O)c1c(-c2ccc(F)cc2)oc2ccc(-c3cc(Cl)cnc3F)cc12
- IC50 [1, 5]: > 10000 nM
- EC50 [2, 6]: 1000 to 10000 nM

SMILES: CCCC#CCOc1ccc(C(=O)NCC(C)C)cc1-c1ccc2oc(-c3ccc(F)cc3)c(C(=O)NC)c2c1
- IC50 [1, 3]: 1000 to 10000 nM
- EC50 [2, 4]: 1000 to 10000 nM

SMILES: C#CCNC(=O)c1cccc(-c2ccc3oc(-c4ccc(F)cc4)c(C(=O)NC)c3c2)c1
- IC50 [1, 5]: 250 to 1000 nM
- EC50 [2, 6]: 1000 to 10000 nM

SMILES: CNC(=O)c1c(-c2ccc(F)cc2)oc2ccc(-c3cn[nH]c3)cc12
- IC50 [1, 5]: > 10000 nM
- EC50 [2, 6]: 250 to 1000 nM

SMILES: CNC(=O)c1c(-c2ccc(F)cc2)oc2ccc(-c3cc(C(=O)NC4(c5nc(C6CC6)no5)CC4)ccc3C)cc12
- IC50 [1, 3]: < 250 nM
- EC50 [2, 4]: < 250 nM

SMILES: CNC(=O)c1c(-c2ccc(F)cc2)oc2ccc(-c3cc(C(=O)NC4(c5ncc(C)s5)CC4)ccc3C)cc12 [drawing 625]
- IC50 [1, 7]: < 20 nM
- EC50 [2, 8]: 1 to 250 nM

SMILES: CNC(=O)c1c(-c2ccc(F)cc2)oc2ccc(-c3ccc(C(=O)NC4CC4)cc3)cc12
- IC50 [1, 5]: > 10000 nM
- EC50 [2, 6]: > 1230 nM

SMILES: CNC(=O)c1c(-c2ccc(F)cc2)oc2ccc(-c3ccc(-c4cncc(N)c4)c(C(=O)NCC(C)C)c3)cc12
- IC50 [1, 3]: < 250 nM
- EC50 [2, 4]: 250 to 1000 nM

SMILES: CNC(=O)c1c(-c2ccc(F)cc2)oc2ccc(-c3cccc(C(=O)NC(C)(C)Cc4ccc(F)cc4)c3)cc12
- IC50 [1, 5]: 250 to 1000 nM
- EC50 [2, 6]: < 250 nM

SMILES: CNC(=O)c1c(-c2ccc(F)cc2)oc2ccc(-c3ccc(C(=O)N(C)Cc4cccnc4)cc3)cc12 [drawing 620]
- IC50 [1, 9]: 9920 nM
- EC50 [2, 10]: 15100 nM

SMILES: CNC(=O)c1c(-c2ccc(F)cc2)oc2ccc(-c3cc(OCc4ccoc4)cc(C(=O)NCC(C)C)c3)cc12
- IC50 [1, 3]: 1000 to 10000 nM
- EC50 [2, 4]: 1000 to 10000 nM

SMILES: CNC(=O)c1c(-c2ccc(F)cc2)oc2ccc(-c3cccc(C(=O)NC(C)(C)c4ccncc4)c3)cc12
- IC50 [1, 3]: < 250 nM
- EC50 [2, 4]: < 250 nM

SMILES: CNC(=O)c1c(-c2ccc(F)cc2)oc2ccc(-c3cc(OCCn4ccnc4C)cc(C(=O)NCC(C)C)c3)cc12
- IC50 [1, 3]: 1000 to 10000 nM
- EC50 [2, 4]: 1000 to 10000 nM

SMILES: CNC(=O)c1c(-c2ccc(F)cc2)oc2ccc(-c3c(C)ccc(C(=O)O)c3OC)cc12
- IC50 [1, 3]: 1000 to 10000 nM
- EC50 [2, 4]: > 10000 nM

SMILES: CNC(=O)c1c(-c2ccc(F)cc2)oc2ccc(-c3cccc(C(=O)NC4CN5CCC4CC5)c3)cc12 (stereo not drawn)
- IC50 [1]: 1000 to 10000 nM
- EC50 [2]: 1000 to 10000 nM

SMILES: CNC(=O)c1c(-c2ccc(F)cc2)oc2ccc(-c3cc(C(=O)NCC(C)C)ccc3OCC3CCNC3)cc12 (stereo not drawn)
- IC50 [1, 3]: < 250 nM
- EC50 [2, 4]: < 250 nM

SMILES: CNC(=O)c1c(-c2ccc(F)cc2)oc2ccc(-c3cccc(C(=O)N[C@@H](CO)C(C)C)c3)cc12 [drawing 613]
- IC50 [1, 9]: 800 nM
- EC50 [2, 10]: 1250 nM

SMILES: CNC(=O)c1c(-c2ccc(F)cc2)oc2cc([N+](=O)[O-])c(-c3ccc(OC)c(C(=O)NC4(c5ccccc5)CC4)c3)cc12
- IC50 [1, 3]: < 250 nM
- EC50 [2, 4]: < 250 nM
